Assay results reported in patent US7728128B2, “Dibenzo[c,h][1,5]naphthyridines and their use as DNA probes” (Institut National de la Sante et de la Recherche Medicate …, priority 2006, dated 2010).

Legend:
human histone 1 (H1) = assay: titration of plasmid DNA with dye in absence or presence of histone 1; type: biochemical
human fibroblasts = assay: in vivo nuclear fluorescence of human fibroblasts incubated with the molecules, scored in the microscope; type: cell-based; design: key: Weak: Staining was defined as “weak”, “moderate” or “strong” based on the nuclear signal/background ratio.; Moderate: Staining was defined as “weak”, “moderate” or “strong” based on the nuclear signal/background ratio.; Strong: Staining was defined as “weak”, “moderate” or “strong” based on the nuclear signal/background ratio; details: 10 μM, 10-60 min (up to 24 hours); Alexa488/FITC filter
Experimental: In this study, three different types of cells were used: Xenopus epithelial cell line XL177 (Miller, L. et al., 1977, In Vitro, 13, 557-563) stably transformed with a YFP-α-tubulin expressing construct (pEYFP-Tub, Clontech), mouse fibroblasts, and primary human skin fibroblasts. XL177 cells were grown at 20° C. in 60% Leibowitz-15 medium, supplemented with antibiotics, 10% fetal calf serum (FCS) and 10 mM HEPES, pH 7.2 with addition of 0.7 mg/ml G418. Cells were plated into glass-bottom 96-well plates (Greiner, Germany) and left to spread for 24 hours before being incubated in the presence of the test compounds from the Curie-CNRS small molecule library (at 25 or 50 μM final concentration) for another 20-24 hours. Mouse and human fibroblasts were grown in DMEM with antibiotics and 10% FCS at 37° C. in the presence of 5% CO2. The cells were observed using a Zeiss Axiovert 200M microscope with a 40× oil immersion objective and a standard Alexa488/FITC filter (Omega, XF100-2; Ex475AF40/Em535AF45/Dichroic505). Subsequent experiments were carried out using smaller concentrations of compound I and incubation times as described in the text and figures legends. For the in vivo tests of compound I-like compounds, the molecules were added to cell culture medium at 10 μM final concentration and incubated with cells 10-60 min (up to 24 hours) prior to scoring.
To get a further insight into how the structural properties of compound I contribute to its binding to DNA, the inventors analysed fourteen structural analogues present in the compound library. Although several of these compounds are fluorescent in vivo, this property went undetected in the initial screen most likely due to the latency period before the appearance of the signal (see below). To evaluate the activity of compound I-like molecules three tests were used: (1) in vivo, the inventors incubated human fibroblasts in the presence of the molecules and scored nuclear fluorescence in the microscope; (2 and 3) in vitro, the inventors looked at the absorption and fluorescence of free molecules before and after addition of plasmid DNA. […] With the exception of compound I and analogues 8 and 12, accurate in vitro measurement of the fluorescence intensities was impossible because the emission peaks for the free molecules were too close to that for the DNA-bound dye. This affected the height of the dye/DNA peaks.

stability in DMSO = type: physicochemical
Experimental: Stability of compound I: When stored in the dark in anhydrous DMSO at −25° C., compound I is stable for periods up to 3 years (LC-MS).

CT DNA = assay: quantum yield, free dye and in admixture with CT DNA; type: physicochemical, calf
Experimental: Spectrometry and fluorimetry were performed using a SpectraMax384 (Molecular Devices) and a Luminescence Spectrometer LS50B (Perkin Elmer). Fluorescence emission of compound I in complex with DNA and RNA was measured in 50 mM Na phosphate buffer, pH 7.2 at room temperature. Before use, total E. coli RNA was heated to 100° C. for 1 min and immediately transferred on ice for 5 min before mixing with compound I solution. All measurements were carried out at room temperature (20-23° C.) in solutions protected from light and incubated for ˜10-15 min after dilution. The units of b/dye and bp/dye are defined as moles of RNA bases or DNA base pairs per mole of dye. Quantum yield was measured using quinine sulphate as standard as described in (Iupac Commission on Photochemistry, EPA Newsletter of November 1986, 21-29) using FLUOROMAX-3 Spex Spectrofluorometer (HORIBA) and UVIKON XL Spectrophotometer (SECOMAM).
Although compound I also stains mitotic chromosomes (FIG. 1D), theoretically it was possible that it binds specifically to DNA-associated proteins (for example histones) rather than to nucleic acids. To resolve this issue, the absorption and emission spectra of free compound I before and after addition of dsDNA were recorded. […] Molar extinction coefficient (EC) of free compound I at 391 nm was measured at 10,800 cm^−1 M^−1. […]

COc1ccc2c(c1)c(C)nc1c3ccc(OC)cc3c(NCCCN(C)C)nc21 [Compound I, N′-(2,8-dimethoxy-12-methyl-dibenzo[c,h][1,5]naphthyridin-6-yl)-N,N-dimethyl-propane-1,3-diamine]
effect of H1 on dye/DNA fluorescence (human histone 1 (H1); 1 μM plasmid DNA, 1 μM H1, emission 484 nm, excitation 435 nm): H1 significantly affected the fluorescence
effect of H1 on free dye fluorescence (human histone 1 (H1); excited at 391 nm): not quenched by H1
Images of the in vivo nuclear staining (human fibroblasts): Strong
stability, period stable (stability in DMSO; DMSO at 4° C. in the dark): stable for at least one year
stability, period stable (stability in DMSO; DMSO solution, ambient temperature, dark): at least 48 hours
stability, period stable (stability in DMSO; anhydrous DMSO at −25° C., dark (LC-MS)): up to 3 years
quantum yield (CT DNA; free dye, 5 μM, 50 mM Na-phosphate pH 7.2, excited at 435 nm): 2.7%
quantum yield (CT DNA; in admixture with 50 μM CT DNA, 5 μM dye, excited at 435 nm): 13.8%
